{"source": "patent US20160022751A1", "about": "“NOVEL COMPOSITION FOR TREATING ALZHEIMER'S DISEASE AND IMPROVING COGNITIVE FUNCTION OF ALZHEIMER'S PATIENTS” (GANGNEUNG-WONJU NATIONAL UNIVERSITY INDUSTRY ACADEMY …, priority 2014, published 2016)", "key": {"[1]": {"system": "SRA", "test": "In vivo SRA mRNA expression in brain tissues (RT-PCR)", "conditions": "mice administrated with Rg3 (FIG. 24A)", "protocol": "Total RNA extracts from HMO6 cells or perfused brain tissue were prepared using the Trizol method (Invitrogen). cDNA was synthesized from RNA by reverse transcription of 1 μg total RNA using the Improm-II reverse transcription system (Promega, Wis., USA) and oligo dT primers in a total volume of 20 μl. PCR amplification was performed using the primers listed in Table 1 (Bioneer, Korea). qPCR reactions were run on a Rotor-Gene 6000 (Corbett Research, Sydney, Australia) using a SensiMix™ SYBR Hi-ROX Kit (Bioline, UK) in 20 μl reaction mixtures. Each real-time-PCR master mix contained 10 μl 2× enzyme master mix, 7 μl RNase free water, 1 μl of each primer (10 pM each), and 1 μl diluted template. The PCR was performed with an initial pre-incubation step for 15 min at 95° C., followed by 45 cycles of 95° C. for 15 s, annealing at 52° C. for 15 s, and extension at 72° C. for 10 s. […] Relative sample expression levels were calculated using Rotor-Gene 6000 Series Software 1.7 and were expressed relative to β-actin for mice or glyceraldehyde 3-phosphate dehydrogenase for HMO6 cells and corrected for between-run variability. Data for the experimental samples are expressed as a percentage of the internal control gene. […]"}, "[2]": {"system": "Aβ42", "test": "Morris water maze test in Aβ42-infused animals", "type": "in vivo", "conditions": "Aβ42 rats administered Rg3 (FIG. 25)", "protocol": "Male BALB/c mice (10 weeks old) were purchased from Samtaco (Korea), and were adapted to laboratory conditions (temperature: 20±2° C., relative humidity: 50%, light/dark cycle: 12 h) for 1 week. Five-week-old male Sprague-Dawley rats were obtained from Daehan-Biolink (Korea) for learning and memory testing. The animals (n=5/group) were maintained at a constant temperature (23±2° C.), relative humidity, 55±10%, and 12-h light/dark cycle. The animals were fed a standard rodent chow and purified water ad libitum. Lyophilized Aβ42 (0.5 mg, Bachem Torrance, USA) was resuspended in PBS (pH 7.4) by shaking for 7 days at room temperature to prepare the fibrillar-aggregated Aβ42 (fAβ42). At 10 weeks of age, mice were anesthetized, and 1 μl fAβ42 (350 μM stock concentration) was stereotaxically injected unilaterally into the parietal cortex (anterior 1.7 mm, lateral 1 mm, and ventral 1 mm to the bregma above the hippocampus within 1 min) (Mohajeri et al., J. Biol. Chem., 277: 35460-35465, 2002)\nThe present inventor performed learning and memory tests using rats in order to investigate whether Rg3 can ameliorate symptoms of Alzheimer's model animals in deed. […] The latency time of stay in the light room from lights-on was recorded following an electric shock (1 mA for 2 s) in the dark compartment. […] The mean time spent to escape onto the platform was recorded."}, "[3]": {"system": "IDE", "test": "IDE protein expression in HMO6 cells (western blot, immunocytochemistry)", "type": "cell-based, human", "conditions": "5 μg/ml Rg3, 24 h (FIG. 19)", "protocol": "FIG. 19 represents an images showing a result of western blot analysis of the expression of NEP (neprilysin) and IDE (insulin-degrading enzyme) in HMO6 cells (A); graphs representing the above result quantitatively (B and C), and fluorescence microscopic images representing immunocytochemical analyses (D and E). The expression of NEP and IDE in HMO6 cells was analyzed by western blot analysis and immunocytochemistry after treating Aβ42 (5 μM) or Rg3 (2.5 or 5 μg/ml) for 24 h to HMO6 cells in serum-free DMEM medium plated on 60 mm cell culture plates or chamber slides. The results are shown as mean±SD. * P<0.05, ** P<0.01, *** P<0.001.\nHMO6 cells were lysed in 1% RIPA buffer containing protease and phosphatase inhibitors (Roche, Mannheim, Germany) and whole-cell lysates were separated on 10% sodium dodecyl sulfate-polyacrylamide gel electrophoresis. After electrophoresis, the proteins were transferred to polyvinylidene fluoride membranes, and the membranes were blocked with 5% skim milk in Tris-buffered saline solution containing 0.1% Tween-20. The membranes were then immunoblotted with primary antibodies, anti-phospho-p38, anti-p38, anti-phospho-ERK, anti-ERK, and anti-f3-actin (Santa Cruz Biotechnology, USA), followed by incubation with horseradish peroxidase-conjugated anti-rabbit or anti-mouse secondary antibodies (Stressgen, USA). […]"}}}
{"smiles": "CC(C)=CCC[C@](C)(O)[C@H]1CC[C@]2(C)[C@@H]1[C@H](O)C[C@@H]1[C@@]3(C)CC[C@H](O[C@@H]4O[C@H](CO)[C@@H](O)[C@H](O)[C@H]4O[C@@H]4O[C@H](CO)[C@@H](O)[C@H](O)[C@H]4O)C(C)(C)[C@@H]3CC[C@]12C", "note": "[ginsenoside Rg3]", "values": [{"measurement": "expression of SRA mRNA in brain tissues", "setting": "[1]", "result": "increased"}, {"measurement": "learning and memory functions, Morris water-maze", "setting": "[2]", "result": "maintained learning and memory functions at 4-5 weeks"}, {"measurement": "IDE expression in cells", "setting": "[3]", "result": "distinctively expressed"}]}
